Test results reported in ChEMBL document CHEMBL3992488, “Anticancer agents interacting with membrane glucose transporters” (Medchemcomm, 2016).

Experiments:
[1] = molecular target: T1, Solute carrier family 2, facilitated glucose transporter member 1 (Homo sapiens, UniProt P11166); assay: Inhibition of GLUT1-mediated [14C]glucose uptake in human erythrocytes; type: cell-based
T1 sequence (P11166 whole entry): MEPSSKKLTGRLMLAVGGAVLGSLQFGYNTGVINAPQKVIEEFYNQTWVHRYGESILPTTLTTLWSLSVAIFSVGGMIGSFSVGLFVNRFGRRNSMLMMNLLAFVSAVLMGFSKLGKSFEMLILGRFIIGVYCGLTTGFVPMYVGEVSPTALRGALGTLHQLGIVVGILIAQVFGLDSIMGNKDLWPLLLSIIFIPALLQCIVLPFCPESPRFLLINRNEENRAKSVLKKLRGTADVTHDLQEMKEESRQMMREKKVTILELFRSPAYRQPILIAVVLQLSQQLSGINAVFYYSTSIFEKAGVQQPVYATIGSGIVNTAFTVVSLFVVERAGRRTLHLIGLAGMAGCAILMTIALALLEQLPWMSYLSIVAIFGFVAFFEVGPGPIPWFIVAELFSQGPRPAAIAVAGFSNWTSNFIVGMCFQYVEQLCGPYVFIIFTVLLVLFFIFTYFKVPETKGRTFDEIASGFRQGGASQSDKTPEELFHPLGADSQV

[2] = molecular target: T1, Solute carrier family 2, facilitated glucose transporter member 1; assay: Inhibition of GLUT1 (unknown origin)-mediated glucose uptake expressed in CHO-K1 cells assessed as reduction in ATP synthesis up to 30 mins in presence of mitochondrial function blocker antimycin A; type: cell-based
[3] = molecular target: T1, Solute carrier family 2, facilitated glucose transporter member 1; assay: Non-competitive inhibition of GLUT1-mediated facilitative uptake of [3H]-2-deoxy-D-glucose in human erythrocyte membranes; type: cell membranes
[4] = molecular target: T1, Solute carrier family 2, facilitated glucose transporter member 1; assay: Inhibition of GLUT1-mediated glucose uptake in human A549 cells assessed as reduction in ATP synthesis up to 30 mins in presence of mitochondrial function blocker antimycin A; type: cell-based
[5] = Inhibition of human LDH5
[6] = molecular target: T1, Solute carrier family 2, facilitated glucose transporter member 1; assay: Mixed type non-competitive inhibition of glucose displaceable binding of [4-3H]cytochalasin B to GLUT1 in human erythrocyte membranes after 10 mins; type: cell membranes
[7] = tested on: RCC4; assay: Growth inhibition of VHL-deficient human RCC4 cells by XTT assay; type: functional, cell-based
[8] = molecular target: T1, Solute carrier family 2, facilitated glucose transporter member 1; assay: Inhibition of human GLUT1 expressed in human DLD1 cells assessed as reduction in glucose uptake; type: cell-based
[9] = molecular target: T2, Solute carrier family 2, facilitated glucose transporter member 4 (Homo sapiens, UniProt P14672); assay: Inhibition of human GLUT4 expressed in CHO cells assessed as reduction in glucose uptake; type: cell-based
T2 sequence (P14672 whole entry): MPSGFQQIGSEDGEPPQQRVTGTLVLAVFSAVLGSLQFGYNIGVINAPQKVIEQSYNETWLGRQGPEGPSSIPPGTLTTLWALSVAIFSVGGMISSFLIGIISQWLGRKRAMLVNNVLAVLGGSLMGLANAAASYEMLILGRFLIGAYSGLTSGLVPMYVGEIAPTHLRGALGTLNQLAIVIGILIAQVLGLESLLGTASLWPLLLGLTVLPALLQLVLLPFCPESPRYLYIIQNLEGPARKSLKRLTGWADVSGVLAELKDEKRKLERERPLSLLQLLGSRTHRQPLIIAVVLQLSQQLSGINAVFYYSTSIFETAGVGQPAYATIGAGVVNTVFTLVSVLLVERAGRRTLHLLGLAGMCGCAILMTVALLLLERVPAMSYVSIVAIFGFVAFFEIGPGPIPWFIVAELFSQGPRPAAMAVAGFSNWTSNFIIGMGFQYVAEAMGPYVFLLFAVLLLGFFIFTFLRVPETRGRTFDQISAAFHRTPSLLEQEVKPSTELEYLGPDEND

[10] = tested on: A549; assay: Antitumor activity against human A549 cells xenografted in NU/J nude mouse assessed as inhibition of tumor volume at 10 mg/kg, ip administered daily for 10 weeks measured every 7 days during compound dosing relative to control; type: functional
[11] = tested on: PC-3; assay: Cytotoxicity against human PC3 cells after 48 hrs by SRB assay; type: functional, cell-based; conditions: PC-3, 48 h
[12] = molecular target: T3, Solute carrier family 2, facilitated glucose transporter member 2 (Homo sapiens, UniProt P11168); assay: Inhibition of human GLUT2 expressed in Xenopus laevis oocytes assessed as reduction in [3H] 2-deoxyglucose uptake by scintillation spectrometric method; type: cell-based
T3 sequence (P11168 whole entry): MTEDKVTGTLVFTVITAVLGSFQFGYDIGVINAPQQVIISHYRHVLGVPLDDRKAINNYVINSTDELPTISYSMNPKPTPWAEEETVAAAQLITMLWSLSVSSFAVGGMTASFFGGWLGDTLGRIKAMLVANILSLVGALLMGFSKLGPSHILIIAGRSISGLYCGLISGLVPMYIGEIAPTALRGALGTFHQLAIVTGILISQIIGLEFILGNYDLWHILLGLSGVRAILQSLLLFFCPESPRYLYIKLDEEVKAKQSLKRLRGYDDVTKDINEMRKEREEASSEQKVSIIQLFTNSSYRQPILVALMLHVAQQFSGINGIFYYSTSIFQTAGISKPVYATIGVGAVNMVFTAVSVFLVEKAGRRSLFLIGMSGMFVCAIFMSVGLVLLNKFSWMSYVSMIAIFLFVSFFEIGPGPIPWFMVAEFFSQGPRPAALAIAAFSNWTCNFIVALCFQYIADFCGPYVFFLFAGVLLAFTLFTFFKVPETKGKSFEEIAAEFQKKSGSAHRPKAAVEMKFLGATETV

[13] = molecular target: T4, Solute carrier family 2, facilitated glucose transporter member 4 (Rattus norvegicus, UniProt P19357); assay: Competitive inhibition of GLUT4 in Wistar rat adipocytes assessed as reduction in insulin-stimulated 3-O-[3H]methyl-D-glucose uptake measured for 30 secs by Lineweaver-Burk plot analysis; type: cell-based
T4 sequence (P19357 whole entry): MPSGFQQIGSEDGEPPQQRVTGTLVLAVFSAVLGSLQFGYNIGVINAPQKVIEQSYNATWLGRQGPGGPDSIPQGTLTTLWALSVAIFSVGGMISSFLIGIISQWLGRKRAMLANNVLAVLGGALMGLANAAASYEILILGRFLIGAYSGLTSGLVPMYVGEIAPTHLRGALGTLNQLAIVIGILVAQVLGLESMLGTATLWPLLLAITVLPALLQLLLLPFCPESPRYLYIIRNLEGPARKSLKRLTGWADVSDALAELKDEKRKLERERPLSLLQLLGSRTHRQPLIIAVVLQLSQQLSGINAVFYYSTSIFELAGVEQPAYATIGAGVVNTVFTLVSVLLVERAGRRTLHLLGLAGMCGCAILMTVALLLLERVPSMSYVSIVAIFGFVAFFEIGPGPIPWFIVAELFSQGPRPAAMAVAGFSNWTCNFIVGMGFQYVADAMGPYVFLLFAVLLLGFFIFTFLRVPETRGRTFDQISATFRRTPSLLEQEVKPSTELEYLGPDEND

[14] = molecular target: T3, Solute carrier family 2, facilitated glucose transporter member 2; assay: Inhibition of human GLUT2 expressed in Xenopus laevis oocytes assessed as reduction in [14C]fructose uptake by scintillation spectrometric method; type: cell-based
[15] = Non-competitive inhibition of glucose transporter in HTR-8/SVneo cells assessed as reduction in [3H]DG uptake preincubated for 20 mins followed by [3H]DG addition after 10 mins by liquid scintillation counting method; type: cell-based; conditions: Homo sapiens

CS(=O)(=O)O[C@H]1[C@H](O)[C@@H](O)C(O)O[C@@H]1CO (some centres not stated)
IC50 [1]: 32000 µM

CCOC(=O)[C@@]12CCCCC/C=C\1N(Cc1cccc3ccccc13)C(=O)[C@H]2CC(=O)N1CCN(C(=O)c2ccco2)CC1
IC50 [2]: 2 µM | Ki [3]: 1.2 µM | IC50 [4]: 10 µM

COC(=O)c1cc2c(C(F)(F)F)cc(-c3ccccc3)cc2n1O
Ki [5]: 5.1 µM

Cc1cc2c(C(C)C)c(O)c(O)c(C=O)c2c(O)c1-c1c(C)cc2c(C(C)C)c(O)c(O)c(C=O)c2c1O [GOSSYPOL]
Ki [6]: 20 µM

CC(C)(C)c1ccc(S(=O)(=O)NCc2ccc(C(=O)Nc3cccnc3)cc2)cc1
IC50 [7]: 7.9 µM

COc1ccc(CC(=O)N[C@@H](Cc2ccccc2Br)C(=O)N[C@@H](C)c2ccccc2)cc1
IC50 [8]: 0.14 µM | IC50 [9]: 0.09 µM

C[C@H](NC(=O)[C@H](Cc1ccc(F)cc1)NC(=O)Cc1cccc(O)c1)c1ccccc1
IC50 [8]: 0.267 µM | IC50 [9]: 0.195 µM

O=C(Oc1cccc(F)c1OC(=O)c1cccc(O)c1)c1cccc(O)c1
inhibition in vivo at 10 mg/kg [10]: > 70%

O=C1C[C@@H]2/C(=C(O)\C=C\c3ccccc3)C(=O)C=C[C@@H]2O1 [CRYPTOCARYONE]
IC50 [11]: 1.6 µM

O=c1c(O)c(-c2ccc(O)c(O)c2)oc2cc(O)cc(O)c12 [QUERCETIN]
IC50 [12]: 12 to 17 µM | Ki [13]: 16 µM | IC50 [14]: 12 to 17 µM

COc1cc(O)c(CC=C(C)C)c(O)c1C(=O)/C=C/c1ccc(O)cc1 [XANTHOHUMOL]
IC50 [15]: 3.55 µM
